Paper PMC10141580, “Cyclic Dichalcogenides Extend the Reach of Bioreductive Prodrugs to Harness Thiol/Disulfide Oxidoreductases: Applications to seco-Duocarmycins Targeting the Thioredoxin System” (ACS Central Science, 2023)
Like-named read-outs stand apart in the source and are kept apart here.

Test system: NCI-60 standardized human tumor cell line panel
Assay: cells
Format: cell-based
[1] = cell line A549/ATCC (LC:A549/ATCC), TMI sheet
[2] = cell line BT-549 (BR:BT-549), TMI sheet
[3] = cell line CCRF-CEM (LE:CCRF-CEM), TMI sheet
[4] = cell line COLO 205 (CO:COLO 205), TMI sheet
[5] = cell line EKVX (LC:EKVX), TMI sheet
[6] = cell line HCC-2998 (CO:HCC-2998), TMI sheet
[7] = cell line HCT-15 (CO:HCT-15), TMI sheet
[8] = cell line HCT-116 (CO:HCT-116), TMI sheet
[9] = cell line HL-60(TB) (LE:HL-60(TB)), TMI sheet
[10] = cell line HOP-62 (LC:HOP-62), TMI sheet
[11] = cell line HOP-92 (LC:HOP-92), TMI sheet
[12] = cell line HT29 (CO:HT29), TMI sheet
[13] = cell line K-562 (LE:K-562), TMI sheet
[14] = cell line KM12 (CO:KM12), TMI sheet
[15] = cell line LOX IMVI (ME:LOX IMVI), TMI sheet
[16] = cell line M14 (ME:M14), TMI sheet
[17] = cell line MALME-3M (ME:MALME-3M), TMI sheet
[18] = cell line MCF7 (BR:MCF7), TMI sheet
[19] = cell line MDA-MB-435 (ME:MDA-MB-435), TMI sheet
[20] = cell line MOLT-4 (LE:MOLT-4), TMI sheet
[21] = cell line NCI-H23 (LC:NCI-H23), TMI sheet
[22] = cell line NCI-H226 (LC:NCI-H226), TMI sheet
[23] = cell line RPMI-8226 (LE:RPMI-8226), TMI sheet
[24] = cell line SF-539 (CNS:SF-539), TMI sheet
[25] = cell line SK-MEL-5 (ME:SK-MEL-5), TMI sheet
[26] = cell line SK-MEL-28 (ME:SK-MEL-28), TMI sheet
[27] = cell line SNB-19 (CNS:SNB-19), TMI sheet
[28] = cell line SR (LE:SR), TMI sheet
[29] = cell line SW-620 (CO:SW-620), TMI sheet
[30] = cell line T-47D (BR:T-47D), TMI sheet
[31] = cell line U251 (CNS:U251), TMI sheet
[32] = cell line UACC-62 (ME:UACC-62), TMI sheet
[33] = cell line UACC-257 (ME:UACC-257), TMI sheet

Molecule `COc1cc2cc(C(=O)N3CC(CCl)c4c3cc(OC(=O)N3CCN(C)C5CSSCC53)c3ccccc43)[nH]c2c(OC)c1OC` (mixture of isomers) [Me-SS66T-CBI-TMI] has a GI50 (TK-10 (RE) cell line, read-out: NCI-60 screening: Raw GI50) of 130 nM, a GI50 (TK-10, read-out: GI50) of 130 nM and a GI50 (U251, read-out: GI50) of 11 nM. The GI50 (UACC-62, read-out: GI50) was 15 nM, the GI50 (UACC-257, read-out: GI50) was 24 nM and the “NCI-60 screening: Log(GI50)” value [1] was -7.92. For the same molecule, the “NCI-60 screening: Log(RedIndex)” value [1] was 2.22, the GI50 (cell line A549/ATCC (LC:A549/ATCC), TMI sheet, read-out: NCI-60 screening: Raw GI50) was 12 nM and the “NCI-60 screening: Log(GI50)” value [2] was -7.81. For the same molecule, the “NCI-60 screening: Log(RedIndex)” value [2] was 2.01, the GI50 (cell line BT-549 (BR:BT-549), TMI sheet, read-out: NCI-60 screening: Raw GI50) was 15 nM and the “NCI-60 screening: Log(GI50)” value [3] was -7.58. The “NCI-60 screening: Log(RedIndex)” value [3] was 1.58, the “NCI-60 screening: Log(GI50)” value [4] was -7.31 and the “NCI-60 screening: Log(RedIndex)” value [4] was 1.44. The “NCI-60 screening: Log(GI50)” value [5] was -7.74, the “NCI-60 screening: Log(RedIndex)” value [5] was 2.03 and the GI50 (cell line EKVX (LC:EKVX), TMI sheet, read-out: NCI-60 screening: Raw GI50) was 18 nM. For the same molecule, the “NCI-60 screening: Log(GI50)” value [6] was -7.81, the “NCI-60 screening: Log(RedIndex)” value [6] was 1.99 and the GI50 (cell line HCC-2998 (CO:HCC-2998), TMI sheet, read-out: NCI-60 screening: Raw GI50) was 15 nM. The “NCI-60 screening: Log(GI50)” value [7] was -7.66, the “NCI-60 screening: Log(RedIndex)” value [7] was 1.9 and the “NCI-60 screening: Log(GI50)” value [8] was -7.74. For the same molecule, the “NCI-60 screening: Log(RedIndex)” value [8] was 1.92, the GI50 (cell line HCT-116 (CO:HCT-116), TMI sheet, read-out: NCI-60 screening: Raw GI50) was 18 nM and the “NCI-60 screening: Log(GI50)” value [9] was -7.92. For the same molecule, the “NCI-60 screening: Log(RedIndex)” value [9] was 1.8, the GI50 (cell line HL-60(TB) (LE:HL-60(TB)), TMI sheet, read-out: NCI-60 screening: Raw GI50) was 12 nM and the “NCI-60 screening: Log(GI50)” value [10] was -7.91. For the same molecule, the “NCI-60 screening: Log(RedIndex)” value [10] was 1.68, the GI50 (cell line HOP-62 (LC:HOP-62), TMI sheet, read-out: NCI-60 screening: Raw GI50) was 12 nM and the “NCI-60 screening: Log(GI50)” value [11] was -7.57. The “NCI-60 screening: Log(RedIndex)” value [11] was 1.97, the GI50 (cell line HOP-92 (LC:HOP-92), TMI sheet, read-out: NCI-60 screening: Raw GI50) was 27 nM and the “NCI-60 screening: Log(GI50)” value [12] was -7.47. For the same molecule, the “NCI-60 screening: Log(RedIndex)” value [12] was 1.65, the GI50 (cell line HT29 (CO:HT29), TMI sheet, read-out: NCI-60 screening: Raw GI50) was 34 nM and the “NCI-60 screening: Log(GI50)” value [13] was -7.61. For the same molecule, the “NCI-60 screening: Log(RedIndex)” value [13] was 1.44, the GI50 (cell line K-562 (LE:K-562), TMI sheet, read-out: NCI-60 screening: Raw GI50) was 25 nM and the “NCI-60 screening: Log(GI50)” value [14] was -7.36. For the same molecule, the “NCI-60 screening: Log(RedIndex)” value [14] was 1.68, the “NCI-60 screening: Log(GI50)” value [15] was -7.91 and the “NCI-60 screening: Log(RedIndex)” value [15] was 1.96. The GI50 (cell line LOX IMVI (ME:LOX IMVI), TMI sheet, read-out: NCI-60 screening: Raw GI50) was 12 nM, the “NCI-60 screening: Log(GI50)” value [16] was -7.98 and the “NCI-60 screening: Log(RedIndex)” value [16] was 2.16. For the same molecule, the GI50 (cell line M14 (ME:M14), TMI sheet, read-out: NCI-60 screening: Raw GI50) was 10 nM, the “NCI-60 screening: Log(GI50)” value [17] was -7.86 and the “NCI-60 screening: Log(RedIndex)” value [17] was 2.06. For the same molecule, the “NCI-60 screening: Log(GI50)” value [18] was -8.28, the “NCI-60 screening: Log(RedIndex)” value [18] was 1.78 and the “NCI-60 screening: Log(GI50)” value [19] was -7.56. The “NCI-60 screening: Log(RedIndex)” value [19] was 1.81, the GI50 (cell line MDA-MB-435 (ME:MDA-MB-435), TMI sheet, read-out: NCI-60 screening: Raw GI50) was 27 nM and the “NCI-60 screening: Log(GI50)” value [20] was -8. The “NCI-60 screening: Log(RedIndex)” value [20] was 1.78, the “NCI-60 screening: Log(GI50)” value [21] was -8.02 and the “NCI-60 screening: Log(RedIndex)” value [21] was 1.69. For the same molecule, the GI50 (cell line NCI-H23 (LC:NCI-H23), TMI sheet, read-out: NCI-60 screening: Raw GI50) was 9.5 nM, the “NCI-60 screening: Log(GI50)” value [22] was -7.02 and the “NCI-60 screening: Log(RedIndex)” value [22] was 1.18. The “NCI-60 screening: Log(GI50)” value [23] was -7.47, the “NCI-60 screening: Log(RedIndex)” value [23] was 1.64 and the GI50 (cell line RPMI-8226 (LE:RPMI-8226), TMI sheet, read-out: NCI-60 screening: Raw GI50) was 34 nM. For the same molecule, the “NCI-60 screening: Log(GI50)” value (cell line SF-268 (CNS:SF-268), TMI sheet) was -7.83, the GI50 (cell line SF-268 (CNS:SF-268), TMI sheet, read-out: NCI-60 screening: Raw GI50) was 15 nM and the “NCI-60 screening: Log(GI50)” value (cell line SF-295 (CNS:SF-295), TMI sheet) was -8.01. The “NCI-60 screening: Log(GI50)” value [24] was -8, the “NCI-60 screening: Log(RedIndex)” value [24] was 2.12 and the GI50 (cell line SF-539 (CNS:SF-539), TMI sheet, read-out: NCI-60 screening: Raw GI50) was 10 nM. The “NCI-60 screening: Log(GI50)” value [25] was -7.88, the “NCI-60 screening: Log(RedIndex)” value [25] was 2.09 and the “NCI-60 screening: Log(GI50)” value [26] was -7.84. The “NCI-60 screening: Log(RedIndex)” value [26] was 2.39, the GI50 (cell line SK-MEL-28 (ME:SK-MEL-28), TMI sheet, read-out: NCI-60 screening: Raw GI50) was 15 nM and the “NCI-60 screening: Log(GI50)” value [27] was -7.79. The “NCI-60 screening: Log(RedIndex)” value [27] was 2.13, the GI50 (cell line SNB-19 (CNS:SNB-19), TMI sheet, read-out: NCI-60 screening: Raw GI50) was 16 nM and the “NCI-60 screening: Log(GI50)” value [28] was -8.4. The “NCI-60 screening: Log(RedIndex)” value [28] was 1.84, the “NCI-60 screening: Log(GI50)” value [29] was -7.24 and the “NCI-60 screening: Log(RedIndex)” value [29] was 1.51. For the same molecule, the GI50 (cell line SW-620 (CO:SW-620), TMI sheet, read-out: NCI-60 screening: Raw GI50) was 58 nM, the “NCI-60 screening: Log(GI50)” value [30] was -7.3 and the “NCI-60 screening: Log(RedIndex)” value [30] was 1.58. For the same molecule, the “NCI-60 screening: Log(GI50)” value [31] was -7.96, the “NCI-60 screening: Log(RedIndex)” value [31] was 2.14 and the “NCI-60 screening: Log(GI50)” value [32] was -7.82. For the same molecule, the “NCI-60 screening: Log(RedIndex)” value [32] was 2.01, the GI50 (cell line UACC-62 (ME:UACC-62), TMI sheet, read-out: NCI-60 screening: Raw GI50) was 15 nM and the “NCI-60 screening: Log(GI50)” value [33] was -7.62. For the same molecule, the “NCI-60 screening: Log(RedIndex)” value [33] was 1.92, the mean reductive index (mean over NCI cell lines, vs P-CC60) was “ca. 70” and the GI50 (read-out: NCI-60 screening: Raw GI50) was 160 nM.
